From patent US20110312961A1, “2,5-Disubstituted Morpholine Orexin REceptor Antagonists” (priority 2008, published 2011)

How the values were obtained:
[1] = system: STZ rat model of diabetic neuropathy; assay: Streptozotocin (STZ)-induced diabetic neuropathy, Von Frey allodynia; assay type: in vivo; conditions: for allodynia (Von Frey): 30 minutes after administration
Excerpt: Peripheral neuropathy, a major complication of diabetes, often results in spontaneous pain or the perception of pain from contact with a normally non-noxious stimulus. Such neuropathic pain is experienced by 20-24% of diabetic patients, or approximately 30 million people worldwide (Schmader, 2002). The streptozotocin (STZ)-induced diabetes model in rats provides a means to evaluate the efficacy of test compounds that offer therapeutic potential for peripheral neuropathy and to understand their putative mechanism of action. In this model, a single injection of STZ, an antibiotic that mimics clinical diabetes by causing irreversible damage to the pancreatic β and α-cells leads to chronic hyperglycemia, nerve dysfunction and pain sensitivity. The current study utilizes the STZ rat model of diabetic neuropathy to investigate the effects of (2S,3R)—N-2-((3-pyridinyl)methyl)-1-azabicyclo[2.2.2]oct-3-yl)-3,5-difluorobenzamide on mechanical allodynia, an assessment of pain.
Diabetes was induced by a 0.5 ml injection of streptozotocin (60 mg/kg) dissolved in citrate buffer (pH) into the tail vein of each rat The development of diabetes was confirmed by measuring the blood glucose levels (BGL) of all animals on study day 3 (BGL>300 mg/dL). […] These animals were tested again for their BGL at study day 23.
(2S,3R)—N-2-((3-pyridinyl)methyl)-1-azabicyclo[2.2.2]oct-3-yl)-3,5-difluorobenzamide (0.1, 1 or 10 mg/kg p.o.) was administered as a solution of the hydrochloride salt in water once daily starting on study day 14 or study day 16 and continuing through study day 21 or 23, respectively. The control article gabapentin (in 0.9% saline, 150 mg/kg i.p.) was only administered on allodynia test days. Test item, vehicle or control article administration was based on evaluation of allodynia on study day 14. If allodynia was not present on study day 14, the animal was evaluated again at study day 16. Pain response was measured either on study days 14 and 21 or 16 and 23, 30 minutes after Test Item administration.
For the allodynia assessments, Von Frey filaments were used according to the methods of Chaplan and colleagues (1994). Briefly, the rats were placed in an enclosure and positioned on a metal mesh surface, but allowed to move freely. The rats' cabins were covered with red cellophane to diminish environmental distributions. The test began after cessation of exploratory behavior.
When the tip of a Von Frey fiber of given length and diameter was pressed against the skin at right angles, the force of application increases as long as the researcher continued to advance the probe until the fiber bent. After the fiber bent, the probe was advanced, causing the fiber to bend more, but without additional force being applied. The animal would indicate sensation by pulling back its paw. In the absence of a paw withdrawal response to the initially selected filament, a stronger stimulus was presented; in the event of paw withdrawal, the next weaker stimulus was chosen. In this fashion, the resulting pattern of positive and negative responses was used to determine the paw withdrawal threshold.
The set of Von Frey monofilaments provide an approximate logarithmic scale of actual force and a linear scale of perceived intensity. Below is a table showing the force (g) and its corresponding size of monofilaments.
All normally distributed data are presented as means±SEM, as well as the animals' individual values followed by a student T-test (Software: Microsoft® Excel). A p value <0.05 is considered to represent a significant difference. Due to the non-normal distribution of the allodynia data, descriptions of those data are provided as both mean (±SEM) and median values in order to represent their imprecise nature and skewed distribution.

[2] = molecular target: T1, rat native α7 receptors (Rattus norvegicus, UniProt Q05941); assay: [3H]MLA radioligand binding, α7 NNR subtype, rat hippocampal membranes; conditions: read-out: Ki, inhibition of [3H]methyllycaconitine (MLA) binding to rat native α7 receptors
T1 construct: rat native α7 receptors in rat hippocampal membranes; from tissue; host or cells: rat (female Sprague-Dawley) hippocampus membranes
Description: Rats (female, Sprague-Dawley), weighing 150-250 g, were maintained on a 12 h light/dark cycle and were allowed free access to water and food supplied by PMI Nutrition International, Inc. Animals were anesthetized with 70% CO2, and then decapitated. Brains were removed and placed on an ice-cold platform. The hippocampus was removed and placed in 10 volumes (weight:volume) of ice-cold preparative buffer (137 mM NaCl, 10.7 mM KCl, 5.8 mM KH2PO4, 8 mM Na2HPO4, 20 mM HEPES (free acid), 5 mM iodoacetamide, 1.6 mM EDTA, pH 7.4); PMSF, dissolved in methanol to a final concentration of 100 μM, was added and the tissue suspension was homogenized by Polytron. […] Protein was determined by the method of Lowry et al., J. Biol. Chem. 193: 265 (1951), using bovine serum albumin as the standard.
The binding of [^3H]MLA was measured using a modification of the methods of Davies et al., Neuropharmacol. […] The binding of [^3H]MLA was determined using a 2 h incubation at 21° C. […] Non-specific binding was determined by inclusion of 50 μM non-radioactive MLA in selected wells.
The inhibition of [^3H]MLA binding by test compounds was determined by including seven different concentrations of the test compound in selected wells. […] Inhibition constants (Ki values), reported in nM, were calculated from the IC50 values using the method of Cheng et al., Biochem. Pharmacol. 22: 3099-3108 (1973).

T1 sequence (Q05941 23-502): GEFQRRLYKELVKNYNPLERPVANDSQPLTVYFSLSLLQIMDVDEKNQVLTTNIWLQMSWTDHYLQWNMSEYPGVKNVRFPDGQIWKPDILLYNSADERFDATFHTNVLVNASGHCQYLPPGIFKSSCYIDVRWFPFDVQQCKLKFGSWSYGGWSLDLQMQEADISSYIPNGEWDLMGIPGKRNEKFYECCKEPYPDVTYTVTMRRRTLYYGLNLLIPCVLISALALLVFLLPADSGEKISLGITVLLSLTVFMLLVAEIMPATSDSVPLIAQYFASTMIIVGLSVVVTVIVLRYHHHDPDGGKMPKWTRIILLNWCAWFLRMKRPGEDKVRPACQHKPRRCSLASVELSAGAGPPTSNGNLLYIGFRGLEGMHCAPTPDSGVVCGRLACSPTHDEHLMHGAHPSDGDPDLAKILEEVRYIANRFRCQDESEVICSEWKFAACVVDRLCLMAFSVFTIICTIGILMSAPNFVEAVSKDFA

O=C(N[C@@H]1C2CCN(CC2)[C@H]1Cc1cccnc1)c1cc(F)cc(F)c1 [Compound A]
allodynia (Von Frey) ([1]; 1 mg/kg p.o., study days 14/16, p<0.01 vs pretreatment, p<0.05 vs Vehicle): inhibited allodynia
allodynia (Von Frey) ([1]; 1 mg/kg p.o., study days 21/23, p=0.012 vs pretreatment): inhibited allodynia
allodynia (Von Frey) ([1]; 10 mg/kg p.o., study days 14/16, p=0.012 vs pretreatment): inhibited allodynia
allodynia (Von Frey) ([1]; 10 mg/kg p.o., study days 21/23, p<0.05 vs Vehicle): inhibited allodynia
diabetic neuropathy pain, Von Frey assessment ([1]; doses of 1 mg/kg and 10 mg/kg compared to Vehicle, FIG. 14): effective in reducing diabetic neuropathy pain
Ki [2]: 100 nM
